Test results from patent US20130012443A1, “METHODS OF TREATMENT OF CENTRAL NERVOUS SYSTEM HEMORRHAGE USING PROTOPORPHYRIN IX-FE COMPOUNDS” (priority 2011, published 2013).
“Also recorded” adds a separate entry of the source.

Key:
[1] = system: heme oxygenase-1 (HO-1); assay: HO-1 expression in mouse brain by immunoblotting; format: in vivo; details: 26 mg/kg i.p. for 1 or 2 days, v. saline; for HO-1 expression in cortex (CTX) / HO-1 expression in striatum (STR): 24 hours after last dose, FIG. 4
Protocol: Mice received 26 mg/kg hemin i.p for 1 or 2 days, or an equal volume of saline. Striatal HO-1 expression was assessed 24 hours after the last hemin dose. Actin levels provide a gel-loading control. *P<0.05 v. expression in saline-treated controls, n=4/conditon.
Mice received 26 mg/kg hemin or heme arginate i.p for 1 or 2 days, or an equal volume of saline. HO-1 expression was assessed 24 hours after last dose. Actin serves as a control.
The response elicited by protoporphyrin IX-Fe compounds was investigated by administering 26 mg/kg hemin, or an equal volume of saline for 1 or 2 days via intraperitoneal injection. Expression of heme oxygenase-1 (HO-1) in striatal cells was assessed 24 hours after the last hemin dose. Four mice were used for each experimental group. Actin was used as a gel-loading control. HO-1 expression was quantified by immunoblotting as previously described (Neuropharmacology 2011 60:423-431); band density was analyzed using Kodak 1D software (Kodak, Rochester, N.Y.) (FIG. 3).
The effect of protoporphyrin IX-Fe compounds on HO-1 expression in nervous tissue was further investigated using heme arginate and examining the response in the cortex in addition to the striatum. Mice received 26 mg/kg hemin or heme arginate for 1 or 2 days, or an equal volume of saline. All treatments were administered intraperitoneally. HO-1 expression was quantified by immunoblotting as previously described (Neuropharmacology 2011 60:423-431).

[2] = system: mouse model of intracerebral hemorrhage (ICH); assay: Evan's blue leakage (blood-brain barrier disruption) after ICH induced by striatal autologous blood injection; format: in vivo, mice
Protocol: Mice were treated with 26 mg/kg hemin i.p. 1 hour later, as a one-time dose, or repeated in 24 hours; controls received vehicle i.p. only. Evan's blue leakage into the striatal parenchyma, a marker of blood-brain barrier disruption, was quantified at 3 days. […] Sham mice received anesthesia and needle trauma only. *P<0.05, **P<0.01, hemin treated v. vehicle-treated controls.
The effect of protoporphyrin IX-Fe compounds on subsequent exposure of nervous tissue to toxic doses of hemin was investigated. A mouse model of intracerebral hemorrhage (ICH) was used. ICH was induced in mice (6-7/condition, 9-10 weeks old) by injecting 25 μl autologous blood (FIG. 1A) into the right striatum. One hour after hemorrhage induction, mice were treated with (a) hemin at 26 mg/kg as a one-time dose, (b) hemin at 26 mg/kg at 1 hour after induction and then repeated at 25 hours after induction, or (c) sterile saline solution only. […] Mice were then treated with vehicle or hemin 1 hour later, with repeated dose 24 hours later. All treatments were administered via intraperitoneal injection. Three days after hemorrhage induction, brains were harvested after Evans blue injection, and slices were examined for Evan's blue fluorescence. […] Evan's blue leakage into the striatal parenchyma was quantified as a marker of blood-brain barrier disruption (FIGS. 1A-1B).

[3] = system: mouse model of intracerebral hemorrhage (ICH); assay: Evan's blue leakage (blood-brain barrier disruption) after ICH induced by collagenase injection; format: in vivo, mice; details: 26 mg/kg 1 or 3 hours after collagenase and again 24 h later, v. vehicle
[4] = system: striatal cells; assay: Striatal cell viability by MTT assay after ICH; format: in vivo, mice; details: v. vehicle
Protocol: Intracerebral hemorrhage was modeled in 2-3 month old mice (5-6/condition) by striatal injection of autologous blood (25 μl) or collagenase (0.014 units), followed 1 or 3 hours later by 4 mg/kg hemin i.p. (repeated 24 h later) or vehicle. Five days after ICH, striatal cell viability was quantified by MTT assay. *P<0.05, **P<0.01, hemin treated v. vehicle-treated controls.
Whether protoporphyrin IX-Fe compounds could reduce hemorrhage-induced cell death in nervous tissues was investigated using the same mouse model of ICH. Intracerebral hemorrhage was modeled in 2-3 month old mice (5-6/condition) by striatal injection of autologous blood (25 μl) or collagenase (0.014 units), followed 1 or 3 hours later by 4 mg/kg hemin i.p. (repeated 24 h later) or vehicle. Five days after ICH, striatal cell viability was quantified by MTT assay (Chen et al., J Neurosurg 2011 114:1159-67) after striatal cell dissociation (FIG. 2). ICH was also modeled by striatal injection of […] autologous blood, followed by hemin (26 mg/kg) or vehicle treatment at 3 and 27 hours after ICH.

[5] = system: HO-1; details: low doses; cited from earlier work
[6] = bound to albumin; cited from earlier work

Substance | HO-1 expression in cortex (CTX) [1] | HO-1 expression in striatum (STR) [1] | Evan's blue leakage into the striatal parenchyma, a marker of blood-brain barrier disruption ([2]; striatal autologous blood injection, 26 mg/kg i.p. 1 hour later, one-time dose or repeated in 24 hours, quantified at 3 days, v. vehicle, 26 mg/kg) | Evan's blue fluorescence in brain slices ([2]; three days after hemorrhage induction, DsRed filter, data not shown) | Evan's blue leakage into the striatal parenchyma, a marker of blood-brain barrier disruption [3] | striatal cell viability (MTT assay) ([4]; autologous blood (25 μl) or collagenase (0.014 units), 4 mg/kg i.p. 1 or 3 hours later, repeated 24 h later, five days after ICH, 4 mg/kg) | MTT staining intensity / tissue viability ([4]; autologous blood, 26 mg/kg at 3 and 27 hours after ICH, data not shown) | Striatal HO-1 expression ([1]; 24 hours after the last dose, FIG. 3) | HO-1 expression in cultured cells [5] | blood vessel inflammation and damage (phlebitis) [6] | stability [6]
heme arginate | increases HO-1 expression | increases HO-1 expression |  |  |  |  |  |  |  |  | 
chloride salt of protoporphyrin IX-Fe^3+ [hemin] | increases HO-1 expression | increases HO-1 expression | attenuated blood-brain barrier disruption following simulated hemorrhage in a dose-dependent manner; also recorded: decreases blood-brain barrier disruption | Reduced fluorescence | decreases blood-brain barrier disruption | increased striatal cell viability; also recorded: increases peri-hematomal cell viability | increased tissue viability | increased expression of HO-1; also recorded: increases expression of the protective enzyme heme oxygenase-1 (HO-1) | could induce HO-1 expression | less blood vessel inflammation and damage (phlebitis) | more stable
